This note sets out measurements from ChEMBL document CHEMBL1127886, “Inhibition of the RTEM-1 -lactamase by boronic acids” (Bioorg Med Chem Lett, 1994).

For this test, the target named is Beta-lactamase TEM (Escherichia coli, UniProt P62593). The experiment in a line: Inhibitory constant was determined against class A RTEM-1 Beta-lactamase from Escherichia coli.
Chain of Beta-lactamase TEM (P62593 whole entry): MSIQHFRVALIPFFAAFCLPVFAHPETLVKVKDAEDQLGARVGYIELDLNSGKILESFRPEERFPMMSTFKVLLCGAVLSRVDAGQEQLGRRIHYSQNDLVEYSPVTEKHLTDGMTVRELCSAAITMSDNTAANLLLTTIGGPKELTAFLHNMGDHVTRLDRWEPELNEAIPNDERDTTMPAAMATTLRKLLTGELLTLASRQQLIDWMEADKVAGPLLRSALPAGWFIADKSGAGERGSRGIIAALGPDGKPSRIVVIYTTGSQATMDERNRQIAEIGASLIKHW

As usually defined, the Ki is a measure of affinity in units of concentration, obtained from inhibition or displacement. Low values mean a stronger hold on the target, high ones a looser hold on the target. In the case of `OB(O)c1cccc(Br)c1`, affinity was put at a Ki of 83 µM.

`OB(O)c1ccc(Cl)cc1Cl` yielded a Ki of 94 µM.

Compound `OB(O)c1ccccc1` [PHENYLBORONIC ACID] displayed a Ki of 491 µM. Take `Cc1cccc(CCB(O)O)c1`: the Ki is 83 µM.

`OB(O)CCC1CCCCC1` showed an inhibition constant (Ki) of 276 µM. With `OB(O)c1ccc(F)c(Cl)c1`, the affinity corresponds to a Ki of 152 µM. With `OB(O)c1cccc(-c2ccccc2)c1` the figure was 13.9 µM; with `Cc1ccc(CCB(O)O)cc1`, 58 µM. Regarding `O=C(O)c1ccc(CCB(O)O)cc1`, the Ki amounted to 49 µM. In turn, `Cc1ccccc1CCB(O)O` displayed a Ki of 141 µM. Take `COc1cccc(CCB(O)O)c1`: the Ki came out at 50 µM. `COc1ccc(B(O)O)cc1` came in with a Ki of 670 µM. With `OB(O)c1ccc(Br)cc1` the figure was 28 µM; with `OB(O)CCc1ccc2ccccc2c1`, 44 µM. Turning to `OB(O)CCc1ccc(Cl)cc1`, the Ki worked out at 41 µM. As for `Nc1cccc(B(O)O)c1`, the Ki was 3700 µM. `OB(O)CCc1ccccc1Cl` registered an inhibition constant Ki of 106 µM.

`OB(O)c1ccc(Cl)c(Cl)c1` gave a Ki of 143 µM. In turn, `OB(O)CCc1cccc2ccccc12` displayed a Ki of 101 µM. `OB(O)CCc1ccc(C(F)(F)F)cc1` had a Ki of 43 µM.
